Measurements published in ChEMBL document CHEMBL6109105, “Design, synthesis and antibacterial evaluation of oxazolidinone derivatives containing N-methylglycyl or quaternary ammonium salts” (Bioorg Med Chem, 2025).
≈ marks a conversion by molar mass, not a printed value. Calls of active or inactive are those of the source. The calls are words filed in the database; no cut-off is given here.

How the values were obtained:
[1] = tested on: Stenotrophomonas maltophilia; assay: Antibacterial activity against Stenotrophomonas maltophilia ATCC 17808 assessed as inhibition of bacterial growth incubated for 16 to 18 hrs by microbroth dilution method; format: functional; details: time 16-18 hrs, read-out: MIC100
Escherichia coli = assay: Antibacterial activity against Escherichia coli ATCC 25922 assessed as inhibition of bacterial growth incubated for 16 to 18 hrs by microbroth dilution method; format: functional; details: time 16-18 hrs, read-out: MIC100
[2] = Hemolytic activity in sheep RBC assessed as hemolysis incubated for 1 hrs by microplate reader analysis; format: toxicity, cell-based, Ovis aries, Erythrocyte; details: sheep red blood cells
Enterococcus faecalis [3] = assay: Antibacterial activity against Enterococcus faecalis ATCC 29212 assessed as inhibition of bacterial growth incubated for 16 to 18 hrs by microbroth dilution method; format: functional; details: time 16-18 hrs, read-out: MIC100
Staphylococcus aureus [4] = assay: Antibacterial activity against Staphylococcus aureus ATCC 29213 assessed as inhibition of bacterial growth incubated for 16 to 18 hrs by microbroth dilution method; format: functional; details: time 16-18 hrs, read-out: MIC100
[5] = (§1) Selectivity ratio of MIC for antibacterial activity against Enterococcus faecalis assessed as inhibition of bacterial growth measured immediately in presence of 50% plasma to MIC for antibacterial activity against Enterococcus faecalis assessed as inhibition of bacterial growth assessed as inhibition of bacterial growth measured after 16 to 18 hrs; format: functional
[6] = as §1, with “after 3 hrs” for “immediately”; format: functional
Cell membrane = assay: Induction of cytoplasmic membrane permeability in Enterococcus faecalis assessed as increase in fluorescence intensity at 8 times of MIC by PI staining based analysis
Enterococcus faecalis [7] = assay: Antibacterial activity against Enterococcus faecalis assessed as inhibition of bacterial growth incubated for 3 hrs in presence of 50% plasma by dilution method; format: functional
HeLa = assay: Cytotoxicity against human HeLa cells assessed as increase in red fluorescence at 32 microg/ml incubated for 24 hrs by calcein-AM/PI staining based fluorescence microscopic analysis; format: toxicity, cell-based; details: dose 32 µg/ml
[8] = Cytotoxicity against human HeLa cells assessed as cell viability at 64 microg/ml incubated for 24 hrs by CCK8 assay relative to control; format: toxicity, cell-based; details: at 64 µg/mL, read-out: Activity
Staphylococcus aureus [9] = assay: Antibacterial activity against methicillin-resistant Staphylococcus aureus assessed as inhibition of bacterial growth by CLSI protocol based broth liquid microdilution method; format: functional
Staphylococcus aureus [10] = assay: Antibacterial activity against Staphylococcus aureus ATCC 29213 assessed as inhibition of bacterial growth by CLSI protocol based broth liquid microdilution method; format: functional
Enterococcus [11] = assay: Antibacterial activity against vancomycin-resistant enterococcus assessed as inhibition of bacterial growth by CLSI protocol based broth liquid microdilution method; format: functional
Staphylococcus aureus [12] = assay: Antibacterial activity against methicillin-resistant Staphylococcus aureus; format: functional
Staphylococcus aureus [13] = assay: Antibacterial activity against methicillin-sensitive Staphylococcus aureus; format: functional
Enterococcus [14] = assay: Antibacterial activity against vancomycin-resistant enterococcus; format: functional
Streptococcus pneumoniae = assay: Antibacterial activity against penicillin-resistant Streptococcus pneumoniae; format: functional

SMILES | MIC [1] | MIC (Escherichia coli) | HC50 at 1 h [2] | MIC (Enterococcus faecalis [3]) | MIC (Staphylococcus aureus [4]) | also measured
CC(=O)NC[C@H]1CN(c2ccc(N3CCN(C(=O)CN(C)Cc4cccc(C#N)c4)CC3)c(F)c2)C(=O)O1 | > 128 µg/mL | > 128 µg/mL | > 1280 µg/mL | 4 µg/mL (≈ 7.65 µM) | 8 µg/mL (≈ 15.3 µM) | 
CCC[N+](C)(C)CC(=O)N1CCN(c2ccc(N3C[C@H](CNC(C)=O)OC3=O)cc2F)CC1.[Br-] | > 128 µg/mL | > 128 µg/mL | > 1280 µg/mL | 64 µg/mL | 64 µg/mL | 
CC(=O)NC[C@H]1CN(c2ccc(N3CCN(C(=O)CN(C)Cc4cccc([N+](=O)[O-])c4)CC3)c(F)c2)C(=O)O1 | > 128 µg/mL | > 128 µg/mL | > 1280 µg/mL | 2 µg/mL (≈ 3.69 µM) | 8 µg/mL (≈ 14.7 µM) | 
CC(=O)NC[C@H]1CN(c2ccc(N3CCN(C(=O)C[N+](C)(C)Cc4ccc(C(F)(F)F)cc4)CC3)c(F)c2)C(=O)O1.[Br-] | > 128 µg/mL | > 128 µg/mL | > 1280 µg/mL | 128 µg/mL | 128 µg/mL | 
CC[C@H](C)[C@H](NC(=O)CN)C(=O)NCC(=O)N[C@@H](C)C(=O)N[C@H](C(=O)N[C@@H](CC(C)C)C(=O)N[C@@H](CCCCN)C(=O)N[C@H](C(=O)N[C@@H](CC(C)C)C(=O)N[C@H](C(=O)N[C@H](C(=O)NCC(=O)N[C@@H](CC(C)C)C(=O)N1CCC[C@H]1C(=O)N[C@@H](C)C(=O)N[C@@H](CC(C)C)C(=O)N[C@H](C(=O)N[C@@H](CO)C(=O)N[C@@H](Cc1c[nH]c2ccccc12)C(=O)N[C@H](C(=O)N[C@@H](CCCCN)C(=O)N[C@@H](CCCNC(=N)N)C(=O)N[C@@H](CCCCN)C(=O)N[C@@H](CCCNC(=N)N)C(=O)N[C@@H](CCC(N)=O)C(=O)N[C@@H](CCC(N)=O)C(N)=O)[C@@H](C)CC)[C@@H](C)CC)[C@@H](C)O)[C@@H](C)O)C(C)C)C(C)C [MELITTIN] |  |  |  |  |  | Selectivity ratio [5]: >16; Selectivity ratio [6]: >16; Activity (Cell membrane): Active; MIC (Enterococcus faecalis [7]): 32 µg/mL; Activity (HeLa): Toxic; viability at 24 h, 64 microg/ml [8]: 5.2%
CC(=O)NC[C@H]1CN(c2ccc(N3CCN(C(=O)CN(C)Cc4ccc(C)cc4)CC3)c(F)c2)C(=O)O1 | > 128 µg/mL | > 128 µg/mL | > 1280 µg/mL | 2 µg/mL (≈ 3.91 µM) | 16 µg/mL (≈ 31.3 µM) | 
CC(=O)NC[C@H]1CN(c2ccc(N3CCN(C(=O)CN(C)Cc4ccc(C(F)(F)F)cc4)CC3)c(F)c2)C(=O)O1 | > 128 µg/mL | > 128 µg/mL | > 1280 µg/mL | 2 µg/mL (≈ 3.54 µM) | 16 µg/mL (≈ 28.3 µM) | 
CC(=O)NC[C@H]1CN(c2ccc(N3CCN(/N=C\c4ccc([N+](=O)[O-])o4)CC3)c(F)c2)C(=O)O1 |  |  |  |  |  | MIC (Staphylococcus aureus [9]): 1 µg/mL (≈ 2.11 µM); MIC (Staphylococcus aureus [10]): 0.25 µg/mL (≈ 0.527 µM); MIC (Enterococcus [11]): 1 µg/mL (≈ 2.11 µM)
CC(=O)NC[C@H]1CN(c2ccc(N3CCN(Cc4ccc([N+](=O)[O-])o4)CC3)c(F)c2)C(=O)O1 [RANBEZOLID] |  |  |  |  |  | MIC (Staphylococcus aureus [12]): 0.06 µg/mL (≈ 0.13 µM); MIC (Staphylococcus aureus [13]): 0.06 µg/mL (≈ 0.13 µM); MIC (Enterococcus [14]): 0.06 µg/mL (≈ 0.13 µM); MIC (Streptococcus pneumoniae): 0.06 µg/mL (≈ 0.13 µM)
